Results from article PMC10943695, “Neutrophil elastase as a versatile cleavage enzyme for activation of αvβ3 integrin-targeted small molecule drug conjugates with different payload classes in the tumor microenvironment” (Frontiers in Pharmacology, 2024).
Entries after “also recorded” stand apart in the source; their conditions may differ. Like-named read-outs stand apart in the source and are kept apart here. Where a SMILES comes first, the peptide text is derived from it. [ ]: non-standard residue; d: D form. The star is where a group is joined. Dolaproine = CO[C@@H]([C@@H]1CCCN1)[C@@H](C)C(=O)O; Dil = CC[C@H](C)[C@H](NC)[C@@H](CC(=O)O)OC; X1 = C[C@@H](N*)[C@@H](O)c1ccccc1; NMeV = CN[C@H](C(=O)O)C(C)C

Columns and labels:
Stability in rat plasma = assay type: in vitro ADME; settings: 37 °C
Description: The SMDC compounds 2, 3, 4, 5 and 6 (1 mg) were dissolved in acetonitrile/DMSO (1:1, 0.5 mL). While vortexing, 20 µL of this solution was added to 1 mL rat plasma at 37 °C. The incubation was stopped at respective time intervals by adding acetonitrile/buffer pH 3 (80:20) and the test compounds and formation of degradation products were analyzed by LC and LC/MS.

[1] = Stability in human plasma; assay type: in vitro ADME; settings: 37 °C
[2] = target: T1, human neutrophil elastase (Homo sapiens, UniProt P08246); test: Human neutrophil elastase cleavability assay; assay type: biochemical; settings: 5 µM SMDC, 20, 40, 60 nM NE, 1 h, 37°C
T1 sequence (P08246 30-267): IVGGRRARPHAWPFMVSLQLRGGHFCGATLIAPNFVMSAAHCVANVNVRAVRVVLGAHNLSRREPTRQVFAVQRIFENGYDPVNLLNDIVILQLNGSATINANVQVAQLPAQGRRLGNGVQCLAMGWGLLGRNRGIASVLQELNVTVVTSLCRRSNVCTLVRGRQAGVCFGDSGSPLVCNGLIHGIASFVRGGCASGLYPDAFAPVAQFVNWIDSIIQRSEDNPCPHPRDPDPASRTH
Description: For the NE cleavability assay, the SMDC test compound was added to buffer (150 mM NaCl, 10 mM CaCl2, 0.05% BSA) to a final concentration of 5 µM (0.5% DMSO). The reaction was started by adding different concentrations of human NE (0, 20, 40, 60 nM) to the reaction vials. After incubation for 1 h at 37°C, the enzymatic reaction was stopped by precipitation in 50% ACN. Subsequently, the samples were subjected to HPLC-MS analysis to determine the concentration of test compound and of its metabolite.

[3] = Hydrolytic stability in PBS buffer at pH 7.4; assay type: physicochemical; settings: PBS pH 7.4, 37 °C, 24 h
Description: For hydrolytic stability measurement, compounds 2, 3, 4, 5 and 6 (0.15 mg) were dissolved in acetonitrile/DMSO (4:1, 0.5 mL) and 1 mL of PBS buffer at pH 7.4 was then added. The sample solution was analyzed by HPLC to determine the amount of the test compound and the formation of degradation products over a period of 24 h at 37 °C.

MX-1 TNBC xenograft = test: In vivo efficacy in MX-1 TNBC xenograft model; settings: 20 mg/kg i.v.
Description: For in vivo efficacy studies, immunocompromised mice were inoculated subcutaneously with 1x10^6 MX-1 TNBC cells in 50% Matrigel/50% Media on day 0. Treatment was started at a mean tumor volume of 75 mm^3 in the MX-1 model (n = 12/group: Compound 2, 20 mg/kg i. v. in a 2 days on/5 days off and in a once weekly (QW) schedule. VIP236, 20 mg/kg i. v. QW). Tumor and body weight were measured at least twice weekly.

[4] = Intravenous pharmacokinetics in rat; assay type: in vivo; settings: for AUC(0-inf) / half-life / clearance / Vd: rat, in vivo, iv; for clearance: read-out: CLp; for Vd: read-out: Vss; for Plasma concentration of released payload: rat plasma after 0.5 mg/kg i.v. of the parent SMDC (4, 5, 6), LLOQ < 0.0005 µM
Description: Pharmacokinetic properties of SMDCs and their respective payloads were characterized in rats. Briefly, male Wistar rats (n = 3) were given a 0.5 mg/kg dose of SMDC formulated in plasma/DMSO (99:1) intravenously (i.v.) via tail vein. Blood was collected at pre-dose, 2, 5, 15, 30, 45, 60 min, 2, 4, 7, 24 h post-dose and then processed to plasma. Plasma was frozen at < −20°C until sample analysis. Plasma samples were analyzed for concentrations of SMDCs and their respective released payloads by LC-MS/MS.
Pharmacokinetics of SMDCs and their respective payloads from in vivo studies were determined using mean concentration-time profiles. All pharmacokinetic parameters were calculated by non-compartmental methods as previously described ([Perrier and Gibaldi, 1982]).

[5] = tested on: SUM149PT (human IBC) cells; test: In vitro cytotoxicity, MTT assay, in absence or presence of neutrophil elastase; assay type: cell-based; settings: Homo sapiens, SUM149PT, 72 h exposure
Description: (§1) 786-O (human RCC), HT-29 (human CRC), NCI-H292 (human NSCLC), NCI-H69 (human SCLC), MX-1 (human TNBC), and SUM149PT (human IBC) cells were acquired from ATCC and cultured according to the provider’s instructions.
(§2) The in vitro cytotoxicity of the SMDCs in comparison to the respective payloads was tested in a panel of cancer cell lines after a 72 h continuous exposure in presence or absence of 20 nM neutrophil elastase using MTT assays (ATCC). IC50 values were determined as the concentration of compound required for 50% inhibition of cell viability.

[6] = tested on: NCI-H292 (human NSCLC) cells; test: as above; assay type: cell-based; settings: Homo sapiens, NCI-H292, 72 h exposure
Description: as §1, §2

HT-29 (human CRC) cells = test: as above; assay type: cell-based; settings: Homo sapiens, HT-29, 72 h exposure
Description: as §1, §2

786-O (human RCC) cells = test: as above; assay type: cell-based; settings: Homo sapiens, 786-0, 72 h exposure
Description: as §1, §2

[7] = Caco-2 cell permeability flux assay; assay type: in vitro ADME; settings: human, 37 °C, mean of at least two assays
Description: The cell permeability of the payloads released by the SMDCs 5 and 6, namely, compounds 10 and 11 were investigated with an in vitro flux assay using Caco-2 cells ([Troutman and Thakker, 2003]). The compounds were dissolved in HEPES buffer and applied (in triplicates) to the cells either on the apical (A) or basolateral (B) side of the Caco-2 monolayer at a final concentration of 2 μM. Before and after incubation for 2 h at 37 °C, samples were taken from both compartments and analyzed by LC-MS/MS. The apparent permeability coefficient (Papp) was calculated for both the apical to basolateral (A → B) and the basolateral to apical (B → A) direction as described by Schwab et al. ([Schwab et al., 2003]).

[8] = male Wistar rats, 0.5 mg/kg SMDC i.v., plasma
[9] = with 20 nM neutrophil elastase, read-out: IC50 SUM149 PT + neutrophil elastase
[10] = without neutrophil elastase, read-out: IC50 SUM149PT
[11] = with 20 nM neutrophil elastase, read-out: IC50 NCI-H292 + neutrophil elastase
[12] = without neutrophil elastase, read-out: IC50 NCI-H292
[13] = with 20 nM neutrophil elastase, read-out: IC50 HT29 + neutrophil elastase
[14] = without neutrophil elastase, read-out: IC50 HT29
[15] = with 20 nM neutrophil elastase, read-out: IC50 786–0 + neutrophil elastase
[16] = without neutrophil elastase, read-out: IC50 786–0

| Papp A→B at 2 h, 2 μM [7] [nm/s] | Papp B→A at 2 h, 2 μM [7] [nm/s] | efflux ratio at 2 h, 2 μM [7] | Structure (SMILES) | Stability in rat plasma (Stability in rat plasma) | Stability in human plasma [1] | Cleavage by human NE [2] | Stability in buffer pH 7.4 [3] | AUC(0-inf) [4, 8] [nM·h] | half-life [4, 8] [h] | clearance [4, 8] [L/h/kg] | Vd [4, 8] [L/kg] | IC50 [5, 9] [nM] | IC50 [5, 10] [nM] | IC50 [6, 11] [nM] | IC50 [6, 12] [nM] | IC50 (HT-29 (human CRC) cells; [13]) [nM] | IC50 (HT-29 (human CRC) cells; [14]) [nM] | IC50 (786-O (human RCC) cells; [15]) [nM] | IC50 (786-O (human RCC) cells; [16]) [nM] | Plasma concentration of released payload [4] | other results |
| --- | --- | --- | --- | --- | --- | --- | --- | --- | --- | --- | --- | --- | --- | --- | --- | --- | --- | --- | --- | --- | --- |
| – | – | – | CCCNC(=O)Nc1cccc(S(=O)(=O)Nc2cccc([C@@H](CC(=O)O)NC(=O)Nc3ccc(NC(=O)NCCN(C)CCN(C)CCN(C)CC(=O)N[C@@H](CC(N)=O)C(=O)N4CCC[C@H]4C(=O)N[C@H](C(=O)O[C@]4(CC)C(=O)OCc5c4cc4n(c5=O)Cc5c-4nc4ccccc4c5CC)C(C)C)cc3)c2)c1 [Compound 2] | highly stable | Very small fractions of a degradation product; also recorded: highly stable | essentially completely cleaved | Very small fractions of a degradation product; also recorded: highly stable | 2520 ± 610 | 8.31 ± 5.49 | 0.14 ± 0.0264 | 0.627 ± 0.344 | – | – | – | – | – | – | – | – | – | Tumor growth MX-1 (MX-1 TNBC xenograft; 2 days on/5 days off): significant tumor regression; also recorded: complete tumor regression; Body weight loss (MX-1 TNBC xenograft; 2 days on/5 days off, MX-1 model): no significant body weight loss; Tumor growth MX-1 (MX-1 TNBC xenograft; once weekly): tumor stasis; Body weight changes (MX-1 TNBC xenograft; MX-1 model): minor; payload/parent AUC ratio ([4]; male Wistar rats, 0.5 mg/kg SMDC i.v., plasma, molar basis): 0.0105 |
| – | – | – | CCCNC(=O)Nc1cccc(S(=O)(=O)Nc2cccc([C@@H](CC(=O)O)NC(=O)Nc3ccc(NC(=O)NCCOCCOCCOCCC(=O)N[C@@H](CC(N)=O)C(=O)N4CCC[C@H]4C(=O)N[C@H](C(=O)NCCCN(C(=O)CO)[C@@H](c4cc(-c5cc(F)ccc5F)cn4Cc4ccccc4)C(C)(C)C)C(C)C)cc3)c2)c1 [Compound 5] | highly stable | highly stable | very slow | highly stable | 1090 ± 490 | 4.88 ± 4.37 | 0.33 ± 0.141 | 0.6 ± 0.515 | – | – | – | – | – | – | – | – | – | – |
| – | – | – | CCc1c2c(nc3ccccc13)-c1cc3c(c(=O)n1C2)COC(=O)[C@]3(O)CC [Compound 7, 7-ethyl camptothecin, reference compound] | – | – | – | – | – | – | – | – | 4.2 | 3.8 | 4.6 | 3.8 | 19 | 22 | 3.2 | 3.7 | – | – |
| – | – | – | CC[C@H](C)[C@@H]([C@@H](CC(=O)N1CCC[C@H]1[C@H](OC)[C@@H](C)C(=O)N[C@H](C)[C@@H](O)c1ccccc1)OC)N(C)C(=O)[C@@H](NC(=O)[C@@H](NC)C(C)C)C(C)C [Compound 9, N-methyl-L-valyl-N-[(3R,4S,5S)-1-{(2S)-2-[(1R,2R)-3-{[(1S,2R)-1-hydroxy-1-phenylpropan-2-yl]amino}-1-methoxy-2-methyl-3-oxopropyl]pyrrolidin-1-yl}-3-methoxy-5-methyl-1-oxoheptan-4-yl]-N-methyl-L-valinamide, reference compound] (H-[NMeV]V[Dil][Dolaproine]-X1) | – | – | – | – | – | – | – | – | 0.14 | 0.18 | 0.36 | 0.4 | 0.55 | 0.58 | 4.9 | 5.9 | largely below the lower limit of quantitation | – |
| 3.8 | 180 | 129 | CC(C)(C)[C@H](c1cc(-c2cc(F)ccc2F)cn1Cc1ccccc1)N(CCCN)C(=O)CO [Compound 10, N-(3-aminopropyl)-N-{(1R)-1-[1-benzyl-4-(2,5-difluorophenyl)-1H-pyrrol-2-yl]-2,2-dimethylpropyl}-2-hydroxyacetamide] | – | – | – | – | – | – | – | – | 0.17 | 0.33 | 0.27 | 0.46 | 0.41 | 0.41 | 2.5 | 2.5 | largely below the lower limit of quantitation | – |
| 34.8 | 303 | 8.7 | CNC(=O)[C@@H](N)CCN(C(=O)CO)[C@@H](c1cc(-c2cc(F)ccc2F)cn1Cc1ccccc1)C(C)(C)C [Compound 11, (2S)-2-amino-4-[{(1R)-1-[1-benzyl-4-(2,5-difluorophenyl)-1H-pyrrol-2-yl]-2,2-dimethylpropyl}(glycoloyl)amino]-N-methylbutanamide] | – | – | – | – | – | – | – | – | 0.53 | 0.31 | 0.97 | 1.8 | 1.4 | 1.2 | 6 | 6 | largely below the lower limit of quantitation | – |
